Measured values published in article PMC6073332 (2018).

Tests used:
[1] = test system: single strand II (complement of I) (DNA, single strand) GAGAAGACAAGAGAG; assay: HPLC-ESI-MS; conditions: 50 mM TEAA pH 7, 310 K, 24 h; Ru/II 1.0 or 3.0; covalent
[2] = test system: single strand VIII (-A7G8T9-) (DNA, single strand) CTCTCTAGTCTTCTC; assay: HPLC-UV peak areas, two-step stoichiometric fit; conditions: none listed (50 mM triethylammonium acetate buffer only); 50 mM TEAA pH 7, 310 K, 24 h; covalent; site 1 of 2 (G8)
[3] = test system: single strand IX (-A7G8A9-) (DNA, single strand) CTCTCTAGACTTCTC; assay: HPLC-UV peak areas, two-step stoichiometric fit; conditions: none listed (50 mM triethylammonium acetate buffer only); 50 mM TEAA pH 7, 310 K, 24 h; covalent; site 1 of 2 (G8)
[4] = test system: duplex III (= I + II) (DNA, duplex) CTCTCTTGTCTTCTC/GAGAAGACAAGAGAG; assay: HPLC-ESI-MS (denaturing); conditions: Na+ 100 mM (NaClO4); 50 mM TEAA pH 7, 310 K, 48 h; Ru/III 1.0 or 6.0; covalent
[5] = test system: single strand V (-C7G8A9-) (DNA, single strand) CTCTCTCGACTTCTC; assay: HPLC-UV peak areas, two-step stoichiometric fit; conditions: none listed (50 mM triethylammonium acetate buffer only); 50 mM TEAA pH 7, 310 K, 24 h; covalent; site 1 of 2 (G8)
[6] = test system: single strand IV (-T7G8A9-) (DNA, single strand) CTCTCTTGACTTCTC; assay: HPLC-UV peak areas, two-step stoichiometric fit; conditions: none listed (50 mM triethylammonium acetate buffer only); 50 mM TEAA pH 7, 310 K, 24 h; covalent; site 1 of 2 (G8)
[7] = test system: single strand I (-T7G8T9-) (DNA, single strand) CTCTCTTGTCTTCTC; assay: HPLC-UV peak areas, two-step stoichiometric fit; conditions: none listed (50 mM triethylammonium acetate buffer only); 50 mM TEAA pH 7, 310 K, 24 h; covalent; site 1 of 2 (G8)
[8] = test system: single strand VI (-A7G8C9-) (DNA, single strand) CTCTCTAGCCTTCTC; assay: HPLC-UV peak areas, two-step stoichiometric fit; conditions: none listed (50 mM triethylammonium acetate buffer only); 50 mM TEAA pH 7, 310 K, 24 h; covalent; site 1 of 2 (G8)
[9] = test system: single strand VII (-C7G8C9-) (DNA, single strand) CTCTCTCGCCTTCTC; assay: HPLC-UV peak areas, two-step stoichiometric fit; conditions: none listed (50 mM triethylammonium acetate buffer only); 50 mM TEAA pH 7, 310 K, 24 h; covalent; site 1 of 2 (G8)
[10] = test system: duplex III (= I + II) (DNA, duplex) CTCTCTTGTCTTCTC/GAGAAGACAAGAGAG; assay: CD; conditions: Na+ 100 mM (NaClO4) in incubation stock, 50 mM TEAA pH 7, 310 K, 24 h, diluted to 5 μM duplex, covalent

| Structure (SMILES) | binding [1] | binding [4] | K1 [7] | also measured |
| --- | --- | --- | --- | --- |
| NCCN.[Cl-].[Ru+2].c1ccc(-c2ccccc2)cc1 | yes | yes | 2.92 ± 0.46 × 10^4 M^−1 | K1 [2]: 5.74 ± 0.44 × 10^4 M^−1; K1 [3]: 3.61 ± 0.39 × 10^4 M^−1; K1 [5]: 2.81 ± 0.55 × 10^4 M^−1; K1 [6]: 3.99 ± 0.31 × 10^4 M^−1; K1 [8]: 3.33 ± 0.37 × 10^4 M^−1; K1 [9]: 4.75 ± 0.53 × 10^4 M^−1 |
| NCCN.[Cl-].[Ru+2].c1ccc2c(c1)CCC2 | yes | – | 2.52 ± 0.13 × 10^4 M^−1 | – |
| N.N.[Cl-].[Cl-].[Pt+2] | – | – | – | binding ([10]; Pt/III 6.0): yes |

More lines, main results first:

| binding [1] | binding [4] | K1 [7] | Structure (SMILES) | also measured |
| --- | --- | --- | --- | --- |
| yes | – | 3.94 ± 0.24 × 10^4 M^−1 | Cc1ccc(C(C)C)cc1.NCCN.[Cl-].[Ru+2] | binding ([10]; Ru/III up to 6.0): yes |
| yes | yes | 0.79 ± 0.04 × 10^4 M^−1 | NCCN.[Cl-].[Ru+2].c1ccccc1 | – |
